Results: the supplement of paper PMC6723410

Columns and labels:
GUMC-403 [1] = experiment: AC50 for reduction of cell viability; higher = less potent; details: 48 h
GUMC-403 [2] = experiment: viability at highest tested concentration (max response) relative to DMSO (% of DMSO control); higher = less cytotoxic; details: library / dose series: MIPE library, 11-point 1:3 dilution, 48 h
Outline: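 Patient-derived GUMC-403 papilloma cells grown by conditional reprogramming were plated at 700/well in 5 μL F + Y medium in 1536-well plates and incubated overnight at 37 °C. They then received 23 nL of MIPE 4.0 compounds by pin tool (11-point 1:3 series) for 48 h. CellTiter-Glo luminescence was read on a ViewLux and normalised with DMSO wells as 100% and empty wells as 0%. The value is viability at the highest tested concentration relative to DMSO control.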

[3] = library / dose series: MIPE library, 11-point 1:3 dilution
[4] = library / dose series: NPC library, 8-point 1:5 dilution

Row | SMILES | AC50 for reduction of cell viability (GUMC-403 [1]; [3]) [µM] | viability (GUMC-403 [2]; top concentration 46.1 µM) | AC50 for reduction of cell viability (GUMC-403 [1]; [4]) [µM] | viability (GUMC-403 [2]; top concentration 92.2 µM)
1 | CN(C)CCN(C)C(=O)c1ccc(NC(=O)Nc2ccc(-c3nc(N4CCOCC4)c4ccn(CC(F)(F)F)c4n3)cc2)cc1 | 0.118 | 5.64 | – | –
2 | CO[C@H]1/C=C\C=C(\C)C(=O)NC2=CC(=O)C(NCCN(C)C)=C(C[C@@H](C)C[C@H](OC)[C@H](O)[C@@H](C)/C=C(/C)[C@@H]1OC(N)=O)C2=O | 1.18 | 5.25 | – | –
3 | CC(C)Oc1cc(Nc2nc(N[C@@H](C)c3ccc(F)cn3)ncc2Cl)n[nH]1 | 8.33 | 58.4 | – | –
4 | C[C@@H]\1COC(=N1)\NC2=CC3=C(C=C2)N=CN=C3NC4=CC(=C(OCC5=NC=CS5)C=C4)Cl | 0.59 | 54.5 | – | –
5 | CN[S+](=O)([O-])CCc1ccc2[nH]cc(C3CCN(C)CC3)c2c1 | 2.35 | 70 | – | –
6 | O=C(Nc1cc(C(F)(F)F)cc(C(F)(F)F)c1)c1cc(Cl)ccc1O | 1.48 | 70 | – | –
7 | Cl.Cl.Fc1ccc(C(OCCN2CCN(CCCc3ccccc3)CC2)c2ccc(F)cc2)cc1 | – | 67.6 | 11.9 | –
8 | CN(C)c1ccc2cc(C(=O)N[C@@H](CCCNC(=N)CCl)C(=O)NCc3ccccc3)ccc2c1 | 20.9 | 46.3 | – | –
9 | C1=C/COCc2cc(ccc2OCCN2CCCC2)Nc2nccc(n2)-c2cccc(c2)OCC/1 | 7.43 | 76.3 | – | –
10 | Nc1nc(N)c2nc(-c3cccc(O)c3)c(-c3cccc(O)c3)nc2n1 | 5.26 | 32.4 | – | –
11 | OC[C@H]1OC(OC2=CC3=C(C(=C2)O)C(=O)\C(=C/O3)C4=CC=C(O)C=C4)[C@H](O)[C@@H](O)[C@@H]1O (some centres not stated) | 9.35 | 21.4 | – | –
12 | CN(C)CCCN1c2ccccc2CCc2ccc(Cl)cc21 | 1.32 | 36 | – | –
13 | CCC[S+](=O)([O-])Nc1ccc(F)c(C(=O)c2c[nH]c3ncc(-c4ccc(Cl)cc4)cc23)c1F | 5.9 | 54.9 | – | –
14 | FC(F)c1nc2ccccc2n1-c1nc(N2CCOCC2)nc(N2CCOCC2)n1 | 0.418 | 71.9 | – | –
15 | CN(C)c1ccc2nc3ccc(N(C)C)cc3[s+]c2c1 | 7.43 | 6.57 | – | –
16 | Cc1ccc(C(N)=O)cc1Nc1nccc(-c2cn(C(C)C)c3cnccc23)n1 | 8.33 | 30 | – | –
17 | Nc1cc(C(F)(F)F)c(-c2cc(N3CCOCC3)nc(N3CCOCC3)n2)cn1 | 1.48 | 44 | – | –
18 | COc1ccc(-c2nc(N3CCOCC3)c3sc(CN(C)c4ncc(C(=O)NO)cn4)cc3n2)cn1 | 1.05 | 44.7 | – | –
19 | COc1cccc2c1C(=O)c1c(O)c3c(c(O)c1C2=O)C[C@@](O)(C(=O)CO)C[C@@H]3O[C@H]1C[C@H](N)[C@@H](O)[C@H](C)O1 | 2.09 | 48.5 | – | –
20 | Nc1nc(F)nc2c1ncn2[C@@H]1O[C@H](CO)[C@@H](O)[C@H]1O | 3.72 | 47.8 | – | –
21 | CN(C)C1=CC=C(C=C1)C(C2=CC=C(C=C2)N(C)C)=C/3\C=C/C(/C=C3)=[N+](C)C | 14.8 | 4.73 | – | –

Row | SMILES | AC50 for reduction of cell viability (GUMC-403 [1]; [3]) [µM] | viability (GUMC-403 [2]; top concentration 46.1 µM) | AC50 for reduction of cell viability (GUMC-403 [1]; [4]) [µM] | viability (GUMC-403 [2]; top concentration 92.2 µM)
22 | CNC(=O)c1ccccc1Nc1nc(Nc2ccc(N3CCOCC3)cc2OC)ncc1Cl | 1.48 | 9.51 | – | –
23 | CC[C@H](NC1=C2N=C[NH]C2=NC=N1)C/3=N/C4=C(C(=CC=C4)F)C(=O)N3C5=CC=CC=C5 | 3.72 | 75.5 | – | –
24 | COc1ncc(-c2ccc3nccc(-c4ccnnc4)c3c2)cc1N[S+](=O)([O-])c1ccc(F)cc1F | 0.59 | 9.41 | – | –
25 | C=CCNC1=C2C[C@@H](C)C[C@H](OC)[C@H](O)[C@@H](C)/C=C(\C)[C@H](OC(N)=O)[C@@H](OC)/C=C\C=C(/C)C(=O)NC(=CC1=O)C2=O | 4.18 | 65.3 | – | –
26 | CC1(COc2ccc3c(c2)ncn3-c2ccc3cccc(N4CCC(N)CC4)c3n2)COC1 | 0.0105 | 51.9 | – | –
27 | O=C1c2ccccc2-[n+]2ccc3c([nH]c4ccccc43)c21 | 4.18 | 3.22 | – | –
28 | O=C1NC(=O)/C(=C/c2ccc3nccc(-c4ccncc4)c3c2)S1 | 0.235 | 18.7 | – | –
29 | COc1cc(Nc2ncc(F)c(Nc3ccc4c(n3)N(COP(=O)(O)O)C(=O)C(C)(C)O4)n2)cc(OC)c1OC | 0.935 | 34.2 | – | –
30 | CN[C@@H]1[C@H](O)[C@H](NC)[C@H]2O[C@@]3(O)C(=O)C[C@@H](C)O[C@H]3O[C@@H]2[C@H]1O | 10.5 | 13.3 | – | –
31 | CCN(CC)CCNC(=O)c1c(C)[nH]c(/C=C2\C(=O)Nc3ccc(F)cc32)c1C | 42.9 | – | – | 5.58
32 | C[C@@]12OC(=O)[C@@]1(NC(=O)[C@@H]2CCCl)[C@@H](O)[C@H]\3CCC\C=C3 | 3.72 | 6.32 | – | –
33 | O=C(/C=C/c1ccc(CN(CCO)CCc2c[nH]c3ccccc23)cc1)NO | 5.9 | 44.9 | – | –
34 | c1nc2c(NC3CCCCC3)nc(Nc3ccc(N4CCOCC4)cc3)nc2[nH]1 | 18.7 | 31.3 | – | –
35 | CC(=O)NCC(=O)N1[C@@H]2CC[C@H]1c1ccc(Nc3ncc(C(F)(F)F)c(NC4CCC4)n3)cc12 | 18.7 | 4.61 | – | –
36 | COc1cc2nc(-c3ccc(N4CCN(C)CC4)cc3)nc(NCCN3CCOCC3)c2cc1OC | 1.05 | 48.5 | – | –
37 | CSCC[C@H](NC(=O)[C@H](Cc1c[nH]c2ccccc12)NC(=O)CCNC(=O)OC(C)(C)C)C(=O)N[C@@H](CC(=O)O)C(=O)N[C@@H](Cc1ccccc1)C(N)=O | 5.9 | 30.1 | – | –
38 | CCN(CC)C(=S)SSC(=S)N(CC)CC | – | 58.9 | 24.8 | –
39 | COC(=O)Nc1ccc(-c2nc(N3CCOCC3)c3cnn(C4CCN(Cc5cccnc5)CC4)c3n2)cc1 | 1.05 | 23.5 | – | –
40 | CC(=O)Nc1ccc([C@H](C)C(=O)Nc2ncc(C(C)C)s2)cc1 | 1.66 | 15.9 | – | –
41 | CC1(C)OC/2=C(\[C@H](NCC3=CC=CC=C3)[C@@H]1O)C(=O)C4=CC=CC=C4C2=O | 7.43 | 5.84 | – | –
